Earlier results in patent publication US20090023784A1, “USE OF DEFERIPRONE AND METHODS TO TREAT AND/OR PREVENT FRIEDREICH ATAXIA RESULTING FROM INTRACELLULAR MISHANDLING OF IRON” (priority 2006, published 2009).

System: intracellular iron pools of macrophages, hepatocytes, and cardiomyocyte cell lines
Settings: living cells, fluorescence probes; cited from earlier work

CC(=O)N(O)CCCCCNC(=O)CCC(=O)N(O)CCCCCNC(=O)CCC(=O)N(O)CCCCCN [desferrioxamine]
access to intracellular iron pools / chelation: slow
